Paper PMC11206519, “Multi-Endpoint Toxicological Assessment of Chrysin Loaded Oil-in-Water Emulsion System in Different Biological Models” (Nanomaterials, 2024)

Experiments:
[1] = system: D. melanogaster trans-heterozygous mwh+/+flr3 larvae of the ST cross; test: SMART wing spot test, mutagenicity, ST cross; assay type: in vivo, Drosophila melanogaster; details: for Statistical diagnosis, Small Single / Statistical diagnosis, Total Spots: vs DI
Procedure: The somatic mutation and recombination test, or the wing spot test, using D. melanogaster was employed as an in vivo system to assess the mutagenicity and anti-mutagenicity of chrysin-ES. Two different crosses were conducted: (i) a standard cross (ST) and (ii) a high bioactivation cross (HB) [18]. The standard cross larvae were obtained from virgin female of flr3/TM3, Ser crossed with males of mwh/mwh, while the HB cross larvae expressing cytochrome P450 enzymes involved in xenobiotic biotransformation were obtained from virgin females of ORR/ORR; flr^3/In (3LR) TM3, ri p^psep l (3)89Aa bx^34e e Bd^s crossed with males of mwh/mwh. The flies were cultured at a constant temperature of 25 ± 1 °C and 60–70% RH at photoperiod 12:12 (light/dark). To evaluate the mutagenicity of chrysin and chrysin-ES, a hundred larva F1 progenies derived from the above crossing were fed with instant Drosophila medium (Formula 4-24®), Carolina, Burlington, NC, USA) containing chrysin or chrysin-ES (20–120 µg/mL). DI was used as a negative control, while 20 mM urethane (URE) was used as a positive control. The larvae were reared on each medium until pupation at 25 °C. After that, forty wings of surviving flies in each group were collected for mutant analysis. The mutant spots on the wings, including small single spots, large single spots, and twin spots, were counted.

[2] = system: HEK-293; test: MTT cytotoxicity assay; assay type: cell-based; details: Homo sapiens, HEK293, 48 h
Procedure: RAW 264.7 (murine macrophage-like cell), 3T3-L1 adipocyte (murine adipocyte), HEK293 (human embryonic kidney cell), and LX-2 (human hepatic stellate cell) were obtained from American Type Culture Collection (ATCC, Manassas, VA, USA). RAW 264.7 macrophages were cultured as a suspension culture in an ultra-low attachment culture dish, whereas the others were cultured as adherent cells in a cell culture flask. The cells were grown in Dulbecco’s Modified Eagle Medium (DMEM) with L-glutamine, supplemented with 10% fetal bovine serum (FBS) (RAW 264.7, HEK293, and LX-2) or 10% fetal calf serum (FCS) (3T3-L1) and 1% penicillin under 5% CO2, at 37 °C. […] Blank-ES was used as a vehicle control. The amount of blank-ES was equal to chrysin-ES amount that was used for the treatment. The cytotoxicity of chrysin, chrysin-ES, and blank-ES in each cell was determined using an MTT assay. […] Then, the solution was gently removed, and the formazan crystal was dissolved with dimethyl sulfoxide (DMSO). The soluble formazan was measured using a microplate reader (Bio-TEK Synergy Hybrid Reader H4) at 540 nm. The cell viability is directly related to the absorbance of formazan. The percentage of cell viability was calculated using the following equation. Cell viability (%) = (Absorbance (sample))/(Absorbance (control)) × 100

[3] = system: S. typhimurium TA 100; test: Ames test, mutagenicity; assay type: cell-based, Salmonella Typhimurium
Procedure: (§1) The S. typhimurium strains TA 98 and TA 100 were used to detect frameshift and base-pair mutations, respectively. […] Then, they were poured onto minimal glucose agar containing a trace amount of histidine, following incubation at 37 °C for 48 h. Then, the revertant colonies were counted and compared with the negative control. If the number of revertant colonies in the tested sample treatment is at least twice that of the negative control (spontaneous revertant colonies), it is considered a mutagen.

[4] = system: S. typhimurium TA 98; test: Ames test, mutagenicity; assay type: cell-based, Salmonella Typhimurium
Procedure: as §1

O=c1cc(-c2ccccc2)oc2cc(O)cc(O)c12 [Chrysin, 5,7-dihydroxyflavone]
Mutant spots per individual (number of spots), Large Single ([1]; 20 µg/mL): 0 (0)
Mutant spots per individual (number of spots), Small Single ([1]; 20 µg/mL): 0.38 (15)
Mutant spots per individual (number of spots), Total Spots ([1]; 20 µg/mL): 0.38 (15)
Mutant spots per individual (number of spots), Twin ([1]; 20 µg/mL): 0 (0)
Statistical diagnosis, Small Single ([1]; 20 µg/mL): −
Statistical diagnosis, Total Spots ([1]; 20 µg/mL): −
Mutant spots per individual (number of spots), Large Single ([1]; 40 µg/mL): 0.03 (1)
Mutant spots per individual (number of spots), Total Spots ([1]; 40 µg/mL): 0.38 (15)
Mutant spots per individual (number of spots), Twin ([1]; 40 µg/mL): 0 (0)
Statistical diagnosis, Small Single ([1]; 40 µg/mL): −
Statistical diagnosis, Total Spots ([1]; 40 µg/mL): −
Mutant spots per individual (number of spots), Large Single ([1]; 80 µg/mL): 0 (0)
Mutant spots per individual (number of spots), Small Single ([1]; 80 µg/mL): 0.58 (23)
Mutant spots per individual (number of spots), Total Spots ([1]; 80 µg/mL): 0.58 (23)
Mutant spots per individual (number of spots), Twin ([1]; 80 µg/mL): 0 (0)
Statistical diagnosis, Small Single ([1]; 80 µg/mL): −
Statistical diagnosis, Total Spots ([1]; 80 µg/mL): −
Mutant spots per individual (number of spots), Large Single ([1]; 120 µg/mL): 0.08 (3)
Mutant spots per individual (number of spots), Small Single ([1]; 120 µg/mL): 0.83 (33)
Mutant spots per individual (number of spots), Total Spots ([1]; 120 µg/mL): 0.90 (36)
Mutant spots per individual (number of spots), Twin ([1]; 120 µg/mL): 0 (0)
Statistical diagnosis, Small Single ([1]; 120 µg/mL): −
Statistical diagnosis, Total Spots ([1]; 120 µg/mL): −
mutagenicity in SMART ([1]; 20–120 μg/mL, ST and HB cross): non-mutagenic
IC20 ([2]; decreases cell viability by 20%): ~53 µM
IC50 ([2]; decreases cell viability by 50%): > 90 µM
Number of Revertant Colonies ([3]; +S9, 5.7 µM/plate): 136 ± 12
Number of Revertant Colonies ([3]; +S9, 11.4 µM/plate): 131 ± 7
Number of Revertant Colonies ([3]; +S9, 22.8 µM/plate): 136 ± 8
Number of Revertant Colonies ([3]; −S9, 5.7 µM/plate): 120 ± 6
Number of Revertant Colonies ([3]; −S9, 11.4 µM/plate): 115 ± 7
Number of Revertant Colonies ([3]; −S9, 22.8 µM/plate): 117 ± 4
Number of Revertant Colonies ([4]; +S9, 5.7 µM/plate): 27 ± 7
Number of Revertant Colonies ([4]; +S9, 11.4 µM/plate): 26 ± 8
Number of Revertant Colonies ([4]; +S9, 22.8 µM/plate): 27 ± 8
mutagenicity in the Ames test ([4]; TA98 and TA100, presence and absence of metabolic activation): did not induce mutations
Number of Revertant Colonies ([4]; −S9, 5.7 µM/plate): 22 ± 6
Number of Revertant Colonies ([4]; −S9, 11.4 µM/plate): 23 ± 5
Number of Revertant Colonies ([4]; −S9, 22.8 µM/plate): 23 ± 7
